Results reported in patent US8575199B2, “Formula (IA″) compounds comprising (piperidin-4-yl)pyridine or (1,2,3,6-tetrahydropyridin-4-4yl) as TRPV1 antagonists” (Purdue Pharma L.P., priority 2007, dated 2013).
In brackets after ≈: the same amount, converted by molar mass. Like-named read-outs stand apart in the source and are kept apart here.

Legend:
[1] = Aqueous solubility at pH 6.8 or pH 1.2; format: physicochemical; conditions: aqueous solution
[2] = biological target: T1, human recombinant TRPV1 (Homo sapiens, UniProt Q8NER1); experiment: pH-based assay, Protocol 2 (hpH-CHO), Ca2+ influx by Fura-2 AM/FDSS-3000 in TRPV1/CHO cells; format: cell-based; conditions: H2SO4 agonist, pH 5.0-5.1, mean ± standard error of the mean (number of trials), read-out: TRPV1 IC50 Potency, Human pH CHO (hpH-CHO)
T1 construct: using primers designed surrounding the complete hTRPV1 open reading frame; expressed in transfected cells; host or cells: CHO-K1 cells stably transfected with pcDNA3.1(-)-hVR1 plasmid
T1 sequence (Q8NER1 whole entry): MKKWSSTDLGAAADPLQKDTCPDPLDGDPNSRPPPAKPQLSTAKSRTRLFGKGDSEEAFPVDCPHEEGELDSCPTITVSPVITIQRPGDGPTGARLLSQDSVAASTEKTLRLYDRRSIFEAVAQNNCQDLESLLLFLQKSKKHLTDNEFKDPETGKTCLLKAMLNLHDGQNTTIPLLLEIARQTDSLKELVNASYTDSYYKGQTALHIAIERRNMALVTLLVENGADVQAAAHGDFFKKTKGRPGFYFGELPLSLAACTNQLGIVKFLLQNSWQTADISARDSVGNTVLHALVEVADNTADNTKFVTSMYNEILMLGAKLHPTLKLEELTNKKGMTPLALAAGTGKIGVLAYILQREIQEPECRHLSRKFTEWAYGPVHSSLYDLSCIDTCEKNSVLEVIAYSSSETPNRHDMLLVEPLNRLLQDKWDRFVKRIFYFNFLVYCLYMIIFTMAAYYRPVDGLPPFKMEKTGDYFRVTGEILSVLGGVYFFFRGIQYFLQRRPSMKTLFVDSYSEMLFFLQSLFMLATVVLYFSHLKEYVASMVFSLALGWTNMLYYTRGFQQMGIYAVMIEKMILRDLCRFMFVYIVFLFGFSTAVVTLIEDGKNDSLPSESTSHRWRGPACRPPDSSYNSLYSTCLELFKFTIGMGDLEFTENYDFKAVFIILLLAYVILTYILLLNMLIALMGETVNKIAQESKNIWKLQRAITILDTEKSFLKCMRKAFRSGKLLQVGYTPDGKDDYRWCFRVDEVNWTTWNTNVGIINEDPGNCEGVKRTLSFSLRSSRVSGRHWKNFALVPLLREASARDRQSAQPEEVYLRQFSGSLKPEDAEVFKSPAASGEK
Excerpt: For Protocol 2, a Chinese Hamster Ovary cell line (CHO) that has been engineered to constitutively express human recombinant TRPV1 was used (TRPV1/CHO cells). The TRPV1/CHO cell line was generated as described below.
The resulting PCR products were purified from agarose gels using Gel Band Purification Kit (GE Healthcare Bioscience) and were subcloned into pCR-Blunt vector (Invitrogen). The cloned cDNA was fully sequenced using a fluorescent dye-terminator reagent (BigDye Terminator ver3.1 Cycle Sequencing Kit, Applied Biosystems) and ABI Prism 3100 genetic analyzer (Applied Biosystems). The pCR-Blunt vector containing the hTRPV1 cDNA was subjected to restriction digestion with EcoR1. […] The sequence of the cDNA encoding TRPV1 is available at GenBank accession number AJ277028. […]
(5) The Fura-2 fluorescent intensity was monitored at a wavelength of 340 nm and at 380 nm, respectively, at a rate of 0.5 Hz for a total of 240 seconds. […]
(6) Fluorescence intensity ratio refers to the fluorescence intensity at 340 nm over the fluorescence intensity at 380 nm at a particular time point. […]
(7) Maximal signal ratios from each well were calculated as output data using the FDSS-3000 analysis program. Data were analyzed using Excel (Microsoft) and XLfit (idbs) software.

[3] = pH 1.2, simulated gastric fluid, read-out: aqueous solubility at pH 1.2
[4] = pH 6.8, aqueous buffer, read-out: aqueous solubility at pH 6.8

solubility [1, 3] [µM] | solubility [1, 4] [µM] | IC50 [2] [nM] | SMILES
9.3 (≈ 3.9 µg/mL) | 1 (≈ 0.42 µg/mL) |  | O=C(Nc1ccc(C(F)(F)F)c(F)c1)N1CCC(F)(c2ncccc2Cl)CC1 [Compound 209]
 |  | 39.8 ± 2.2 | O=C(Nc1ccc(OC(F)(F)F)c(-c2ccccc2)c1)N1CC=C(c2ncc(CO)cc2Cl)CC1 [Compound D3]
 |  | 5.3 ± 1 | O=C(Nc1ccc(C(F)(F)F)c(Cl)c1)N1CCC(F)(c2ncc([C@H](O)CO)cc2F)CC1 [Compound Q3]
39.6 (≈ 15.8 µg/mL) | 0.8 (≈ 0.32 µg/mL) |  | O=C(Nc1ccc(C(F)(F)F)c(F)c1)N1CC=C(c2ncccc2Cl)CC1 [Compound 213]
9.6 (≈ 3.84 µg/mL) | 0.6 (≈ 0.24 µg/mL) |  | O=C(Nc1ccc(C(F)(F)F)c(Cl)c1)N1CC=C(c2ncccc2F)CC1 [Compound 215]
